This assay addresses PI3K delta (Homo sapiens, UniProt O00329). The assay is described as follows: Luciferase-coupled chemiluminescence kinase assay (ATP consumption, KinaseGlo). The format is biochemical. In outline: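 Compound, kinase and ATP (≤ KM) reacted 2 h at ambient temperature, then remaining ATP quantified with luciferase-luciferin (KinaseGlo) luminescence as percent consumed.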
Chain of PI3K delta (O00329 whole entry): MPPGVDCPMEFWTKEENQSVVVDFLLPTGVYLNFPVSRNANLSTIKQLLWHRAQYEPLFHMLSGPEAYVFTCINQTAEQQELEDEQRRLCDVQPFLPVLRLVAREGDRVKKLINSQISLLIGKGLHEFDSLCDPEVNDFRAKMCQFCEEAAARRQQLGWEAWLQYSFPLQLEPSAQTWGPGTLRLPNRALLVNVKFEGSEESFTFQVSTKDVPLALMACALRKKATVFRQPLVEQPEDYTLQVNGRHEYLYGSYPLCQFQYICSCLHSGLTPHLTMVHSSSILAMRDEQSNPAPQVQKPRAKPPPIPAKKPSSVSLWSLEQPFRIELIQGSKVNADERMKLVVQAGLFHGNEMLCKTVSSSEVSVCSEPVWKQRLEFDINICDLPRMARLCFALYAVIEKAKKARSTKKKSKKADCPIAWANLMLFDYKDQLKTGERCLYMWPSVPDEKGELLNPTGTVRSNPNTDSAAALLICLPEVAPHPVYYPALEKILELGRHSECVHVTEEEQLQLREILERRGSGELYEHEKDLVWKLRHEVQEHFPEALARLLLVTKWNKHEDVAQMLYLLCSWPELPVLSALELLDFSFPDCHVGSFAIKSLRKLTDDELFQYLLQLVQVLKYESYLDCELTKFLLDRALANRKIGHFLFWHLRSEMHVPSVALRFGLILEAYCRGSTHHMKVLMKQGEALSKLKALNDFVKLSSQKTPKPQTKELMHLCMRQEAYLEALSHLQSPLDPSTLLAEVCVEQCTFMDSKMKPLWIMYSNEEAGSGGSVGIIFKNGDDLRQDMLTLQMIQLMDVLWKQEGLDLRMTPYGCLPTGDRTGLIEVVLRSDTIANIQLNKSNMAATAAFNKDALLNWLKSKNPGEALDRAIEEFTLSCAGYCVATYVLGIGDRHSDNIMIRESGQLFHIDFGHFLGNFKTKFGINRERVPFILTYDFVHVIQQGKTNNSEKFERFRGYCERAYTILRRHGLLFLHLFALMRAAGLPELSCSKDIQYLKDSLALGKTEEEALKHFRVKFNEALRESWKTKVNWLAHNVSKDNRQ
Chain of PI3K delta (P27986 whole entry partner): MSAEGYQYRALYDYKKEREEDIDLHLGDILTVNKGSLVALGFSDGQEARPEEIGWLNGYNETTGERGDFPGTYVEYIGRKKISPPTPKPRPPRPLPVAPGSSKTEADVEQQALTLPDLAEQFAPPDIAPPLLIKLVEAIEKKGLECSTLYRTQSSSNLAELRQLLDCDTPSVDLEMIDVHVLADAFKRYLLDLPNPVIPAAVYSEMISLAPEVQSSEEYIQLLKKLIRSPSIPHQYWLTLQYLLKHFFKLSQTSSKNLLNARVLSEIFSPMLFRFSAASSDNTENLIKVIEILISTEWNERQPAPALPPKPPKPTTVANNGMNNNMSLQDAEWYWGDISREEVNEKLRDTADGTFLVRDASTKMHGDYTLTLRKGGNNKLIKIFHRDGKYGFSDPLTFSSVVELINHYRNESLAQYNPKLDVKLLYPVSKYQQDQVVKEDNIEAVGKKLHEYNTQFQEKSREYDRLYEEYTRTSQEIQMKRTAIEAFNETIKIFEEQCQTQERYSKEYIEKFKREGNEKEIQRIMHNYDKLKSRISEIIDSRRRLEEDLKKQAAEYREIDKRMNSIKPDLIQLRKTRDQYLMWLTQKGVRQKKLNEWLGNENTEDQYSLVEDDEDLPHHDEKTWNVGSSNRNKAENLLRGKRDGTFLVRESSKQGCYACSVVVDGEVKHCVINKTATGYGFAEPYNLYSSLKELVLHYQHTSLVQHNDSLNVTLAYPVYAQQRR
By IC50 is commonly meant the point on the concentration scale where inhibition reaches its midpoint. With `CCc1nc2c(N3CCC(n4c(=O)[nH]c5ccccc54)CC3)ncnc2n1C` [Compound 92, 1-[1-(8-ethyl-9-methyl-9H-purin-6-yl)piperidin-4-yl]-1,3-dihydro-2H-benzimidazol-2-one], the IC50 lay in the range of 0.5 to 1.5 µM. For `CCCCc1nc2c(N3CCC(n4c(=O)[nH]c5ccccc54)CC3)ncnc2n1C` [Compound 93, 1-[1-(8-butyl-9-methyl-9H-purin-6-yl)piperidin-4-yl]-1,3-dihydro-2H-benzimidazol-2-one], the IC50 is 0.5 to 1.5 µM.

`CON(C)C(=O)c1nc2c(N3CCC(n4c(=O)[nH]c5ccccc54)CC3)ncnc2n1C` [Compound 94, N,9-dimethyl-N-(methyloxy)-6-[4-(2-oxo-2,3-dihydro-1H-benzimidazol-1-yl)piperidin-1-yl]-9H-purine-8-carboxamide] displayed an IC50 of 0.5 to 1.5 µM. The value for `CC(=O)c1nc2c(N3CCC(n4c(=O)[nH]c5ccccc54)CC3)ncnc2n1C` [Compound 95, 1-[1-(8-Acetyl-9-methyl-9H-purin-6-yl)piperidin-4-yl]-1,3-dihydro-2H-benzimidazol-2-one] was 0.25 to 0.5 µM.

Turning to `Cn1c(C(=O)NCC(C)(C)C)nc2c(N3CCC4(CC3)C(=O)Nc3ccccc34)ncnc21` [Compound 96, N-(2,2-dimethylpropyl)-9-methyl-6-(2-oxo-1,2-dihydro-1′H-spiro[indole-3,4′-piperidin]-1′-yl)-9H-purine-8-carboxamide], the IC50 lay within 0.05 to 0.25 µM.

Take `CCn1c(C(=O)NCC2CC2)nc2c(N3CCC(n4c(=O)[nH]c5ccccc54)CC3)ncnc21` [Compound 97, N-(cyclopropylmethyl)-9-ethyl-6-[4-(2-oxo-2,3-dihydro-1H-benzimidazol-1-yl)piperidin-1-yl]-9H-purine-8-carboxamide]: the IC50 was less than 0.05 µM. The value for `Cn1c(C(=O)NCC2CC2)nc2c(N3CCC4(C3)C(=O)Nc3ccccc34)ncnc21` (centres unmarked) [Compound 98, N-(cyclopropylmethyl)-9-methyl-6-(2-oxo-1,2-dihydro-1′H-spiro[indole-3,3′-pyrrolidin]-1′-yl)-9H-purine-8-carboxamide] was 0.5 to 1.5 µM; that for `Cn1c(C(=O)NCC2CC2)nc2c(N3CCC4(CC3)C(=O)NCC4c3ccccc3)ncnc21` (centres unmarked) [Compound 99, N-(cyclopropylmethyl)-9-methyl-6-(1-oxo-4-phenyl-2,8-diazaspiro[4.5]dec-8-yl)-9H-purine-8-carboxamide] was 0.5 to 1.5 µM; that for `Cn1c(C(=O)NCC2CC2)nc2c(N3CCC(c4c[nH]c5ccccc45)CC3)ncnc21` [Compound 100, N-(cyclopropylmethyl)-6-[4-(1H-indol-3-yl)piperidin-1-yl]-9-methyl-9H-purine-8-carboxamide] was 0.5 to 1.5 µM. `Cn1c(C(=O)NCC2CC2)nc2c(N3CCC(n4c(C(F)(F)F)nc5ccccc54)CC3)ncnc21` [Compound 101, N-(cyclopropylmethyl)-9-methyl-6-{4-[2-(trifluoromethyl)-1H-benzimidazol-1-yl]piperidin-1-yl}-9H-purine-8-carboxamide] yielded an IC50 of 0.25 to 0.5 µM. Then `Cc1nnc(-c2nc3c(N4CCC(n5c(=O)[nH]c6ccccc65)CC4)ncnc3n2C)o1` [Compound 102, 1-{1-[9-methyl-8-(5-methyl-1,3,4-oxadiazol-2-yl)-9H-purin-6-yl]piperidin-4-yl}-1,3-dihydro-2H-benzimidazol-2-one], with 0.05 to 0.25 µM. On to `Cn1c(C(=O)N2CC(F)(F)C2)nc2c(N3CCC4(CC3)C(=O)Nc3ccccc34)ncnc21` [Compound 103, 1′-{8-[(3,3-difluoroazetidin-1-yl)carbonyl]-9-methyl-9H-purin-6-yl}spiro[indole-3,4′-piperidin]-2(1H)-one], for which the IC50 fell in the range of 0.05 to 0.25 µM.

The molecule `Cn1c(C(=O)N2CC(F)(F)C2)nc2c(N3CCC(n4c(=O)[nH]c5ccccc54)CC3)ncnc21` [Compound 104, 1-(1-{8-[(3,3-difluoroazetidin-1-yl)carbonyl]-9-methyl-9H-purin-6-yl}piperidin-4-yl)-1,3-dihydro-2H-benzimidazol-2-one] registered an IC50 of 0.05 to 0.25 µM. As for `Cn1c(C(=O)NC2CCC(F)(F)CC2)nc2c(N3CCC4(CC3)C(=O)Nc3ccccc34)ncnc21` [Compound 105, N-(4,4-difluorocyclohexyl)-9-methyl-6-(2-oxo-1,2-dihydro-1′H-spiro[indole-3,4′-piperidin]-1′-yl)-9H-purine-8-carboxamide], the IC50 lay in the range of 0.05 to 0.25 µM. Then `Cn1c(C(=O)N2CCC(F)(F)C2)nc2c(N3CCC4(CC3)C(=O)Nc3ccccc34)ncnc21` [Compound 106, 1′-{8-[(3,3-difluoropyrrolidin-1-yl)carbonyl]-9-methyl-9H-purin-6-yl}spiro[indole-3,4′-piperidin]-2(1H)-one], with 0.05 to 0.25 µM; and `Cn1c(C(=O)NC2CCC(F)(F)CC2)nc2c(N3CCC(n4c(=O)[nH]c5ccccc54)CC3)ncnc21` [Compound 107, N-(4,4-difluorocyclohexyl)-9-methyl-6-[4-(2-oxo-2,3-dihydro-1H-benzimidazol-1-yl)piperidin-1-yl]-9H-purine-8-carboxamide], with 0.05 to 0.25 µM.

For the molecule `Cn1c(C(=O)N2CCC(F)(F)C2)nc2c(N3CCC(n4c(=O)[nH]c5ccccc54)CC3)ncnc21` [Compound 108, 1-(1-{8-[(3,3-difluoropyrrolidin-1-yl)carbonyl]-9-methyl-9H-purin-6-yl}piperidin-4-yl)-1,3-dihydro-2H-benzimidazol-2-one], the IC50 is 0.05 to 0.25 µM. For `Cn1c(C(=O)N2CC[C@H](F)C2)nc2c(N3CCC4(CC3)C(=O)Nc3ccccc34)ncnc21` [Compound 109, 1′-(8-{[(3S)-3-fluoropyrrolidin-1-yl]carbonyl}-9-methyl-9H-purin-6-yl)spiro[indole-3,4′-piperidin]-2(1H)-one], the IC50 is 0.05 to 0.25 µM. As to `Cn1c(C(=O)N2CC[C@@H](F)C2)nc2c(N3CCC4(CC3)C(=O)Nc3ccccc34)ncnc21` [Compound 110, 1′-(8-{[(3R)-3-fluoropyrrolidin-1-yl]carbonyl}-9-methyl-9H-purin-6-yl)spiro[indole-3,4′-piperidin]-2(1H)-one], the IC50 was 0.05 to 0.25 µM. Then `Cn1c(C(=O)N[C@H]2CC[C@H](O)CC2)nc2c(N3CCC(n4c(=O)[nH]c5ccccc54)CC3)ncnc21` [Compound 111, N-(trans-4-hydroxycyclohexyl)-9-methyl-6-[4-(2-oxo-2,3-dihydro-1H-benzimidazol-1-yl)piperidin-1-yl]-9H-purine-8-carboxamide], with less than 0.05 µM; and `CCCC(=O)c1nc2c(N3CCC(n4c(=O)[nH]c5ccccc54)CC3)ncnc2n1C` [Compound 113, 1-[1-(8-butanoyl-9-methyl-9H-purin-6-yl)piperidin-4-yl]-1,3-dihydro-2H-benzimidazol-2-one], with 0.05 to 0.25 µM; and `CCc1nnc(-c2nc3c(N4CCC(n5c(=O)[nH]c6ccccc65)CC4)ncnc3n2C)o1` [Compound 114, 1-{1-[8-(5-ethyl-1,3,4-oxadiazol-2-yl)-9-methyl-9H-purin-6-yl]piperidin-4-yl}-1,3-dihydro-2H-benzimidazol-2-one], with less than 0.05 µM. Then `Cc1ccc(-c2nc3c(N4CCC(n5c(=O)[nH]c6ccccc65)CC4)ncnc3n2C)o1` [Compound 115, 1-{1-[9-methyl-8-(5-methylfuran-2-yl)-9H-purin-6-yl]piperidin-4-yl}-1,3-dihydro-2H-benzimidazol-2-one], with 0.25 to 0.5 µM.
